The source of these data is patent publication US9393221B2, “Methods and compounds for reducing intracellular lipid storage” (THE GENERAL HOSPITAL CORPORATION, priority 2011, dated 2016).

Structures are written as SMILES. Counter-ions that a name gives are not always drawn.

The assay has as its system ATGL-KO iPSCs. The assay is described as follows: High throughput iPSC chemical screening, Oil Red O (ORO) lipid accumulation. On Z-score: test concentration or dose not given here. The class given is cell-based, mouse. As to conditions: for Z-score: normalized ORO level vs DMSO-treated cells, compound present during 7 days differentiation, 96-well, negative = decrease in lipid accumulation.

The compound `C=C[C@H]1C[N@@]2CC[C@H]1C[C@@H]2[C@@H](O)c1ccnc2ccc(OC)cc12` [Quinidine hydrochloride monohydrate] showed a Z-score of 6.798. Same read-out and setting: the figure for `CC(=O)SCC(Cc1ccccc1)C(=O)NCC(=O)OCc1ccccc1` (stereo not shown) [Racecadotril] is 0.516; for `O=C(c1ccc(OCCN2CCCCC2)cc1)c1c(-c2ccc(O)cc2)sc2cc(O)ccc12` [Raloxifene hydrochloride] it is −0.8574. For `CCOC(=O)[C@H](CCc1ccccc1)N[C@@H](C)C(=O)N1[C@H](C(=O)O)C[C@@H]2CCC[C@@H]21` [Ramipril], the Z-score turned out to be 1.188. Same read-out and setting: the figure for `CNC(=C[N+](=O)[O-])NCCSCc1ccc(CN(C)C)o1` [Ranitidine hydrochloride] is −0.5642; for `COC(=O)[C@H]1[C@H]2C[C@H]3c4[nH]c5ccccc5c4CCN3C[C@H]2CC[C@@H]1O` [Rauwolscine hydrochloride] it is −0.7161. On the same count and under the same terms, the figure for `CCN1CCC[C@H]1CNC(=O)c1c(OC)ccc(Br)c1OC` [Remoxipride Hydrochloride] is −0.4559.

For `CCOc1cc(CC(=O)N[C@@H](CC(C)C)c2ccccc2N2CCCCC2)ccc1C(=O)O` [Repaglinide], the Z-score is listed as −0.2231.

Consider `COC(=O)[C@H]1[C@H]2C[C@@H]3c4[nH]c5cc(OC)ccc5c4CCN3C[C@H]2C[C@@H](OC(=O)/C=C/c2cc(OC)c(OC)c(OC)c2)[C@@H]1OC` [Rescinnamin], for which the Z-score is reported as 1.097. Same read-out and setting: the figure for `COC(=O)[C@H]1[C@H]2C[C@@H]3c4[nH]c5cc(OC)ccc5c4CCN3C[C@H]2C[C@@H](OC(=O)c2cc(OC)c(OC)c(OC)c2)[C@@H]1OC` [Reserpine] is −0.083; for `COc1ccc2c3c([nH]c2c1)[C@H]1C[C@H]2[C@H](C[C@@H](O)[C@H](OC)[C@H]2C(=O)O)CN1CC3.Cl` [Reserpinic acid hydrochloride] it is −1.3417. The same measure, in the same setting: the figure for `Oc1ccc(C=Cc2cc(O)cc(O)c2)cc1` [Resveratrol] is 11.669; for `CC1=C(/C=C/C(C)=C/C=C/C(C)=C/C(=O)O)C(C)(C)CCC1` [Retinoic acid] it is −0.7042. On the same count and under the same terms, the figure for `NC(=O)c1ncn([C@@H]2O[C@H](CO)[C@@H](O)[C@H]2O)n1` [Ribavirin] is −1.5081; for `Cc1cc2nc3c(=O)[nH]c(=O)nc-3n(C[C@H](O)[C@H](O)[C@H](O)CO)c2cc1C` [Riboflavine] it is 0.1165.

`NC[C@H]1O[C@H](O[C@H]2[C@H](O[C@@H]3O[C@H](CO)[C@@H](O)[C@H]3O)[C@@H](O)[C@H](N)C[C@@H]2N)[C@H](N)[C@@H](O)[C@@H]1O` [Ribostamycin sulfate salt]: the Z-score is −0.4737. The same measure, in the same setting: to `COc1ccn(C)c(=O)c1C#N` [Ricinine] belongs −1.4299; to `CO[C@H]1/C=C/O[C@@]2(C)Oc3c(C)c(O)c4c(c3C2=O)C2=NC3(CCN(CC(C)C)CC3)NC2=C(NC(=O)/C(C)=C\C=C\[C@H](C)[C@H](O)[C@@H](C)[C@@H](O)[C@@H](C)[C@H](OC(C)=O)[C@@H]1C)C4=O` [Rifabutin], 1.521. The compound `CO[C@H]1/C=C/O[C@@]2(C)Oc3c(C)c(O)c4c(O)c(c(/C=N/N5CCN(C)CC5)c(O)c4c3C2=O)NC(=O)/C(C)=C\C=C\[C@H](C)[C@H](O)[C@@H](C)[C@@H](O)[C@@H](C)[C@H](OC(C)=O)[C@@H]1C` [Rifampicin] had a Z-score of −0.5227. Turning to `C1COC(NC(C2CC2)C2CC2)=N1` [Rilmenidine hemifumarate], the Z-score was −1.0936. The same measure, in the same setting: to `CCC(=O)[C@@]1(C)[C@H](C)C[C@H]2[C@@H]3CCC4=CC(=O)C=C[C@]4(C)[C@H]3[C@@H](O)C[C@@]21C` [Rimexolone] belongs −0.4134; to `Cc1nc2n(c(=O)c1CCN1CCC(c3noc4cc(F)ccc34)CC1)CCCC2` [Risperidone], −0.0533. Same read-out and setting: the figure for `CC(NCCc1ccc(O)cc1)C(O)c1ccc(O)cc1` (stereo not shown) [Ritodrine hydrochloride] is 0.3787; for `COc1ccc(C2CNC(=O)C2)cc1OC1CCCC1` (stereo not shown) [Rolipram] it is −0.7794; for `CN(C)[C@@H]1C(O)=C(C(=O)NCN2CCCC2)C(=O)[C@@]2(O)C(O)=C3C(=O)c4c(O)cccc4[C@@](C)(O)[C@H]3C[C@@H]12` [Rolitetracycline] it is −0.3523. The same measure, in the same setting: to `Cn1c([N+](=O)[O-])cnc1COC(N)=O` [Ronidazole] belongs 1.5256; to `O=[N+]([O-])c1cc([As](=O)(O)O)ccc1O` [Roxarsone], −0.5936; to `CC[C@H]1OC(=O)[C@H](C)[C@@H](O[C@H]2C[C@@](C)(OC)[C@@H](O)[C@H](C)O2)[C@H](C)[C@@H](O[C@@H]2O[C@H](C)C[C@H](N(C)C)[C@H]2O)[C@](C)(O)C[C@@H](C)/C(=N\OCOCCOC)[C@H](C)[C@@H](O)[C@]1(C)O` [Roxithromycin], −1.026.

Consider `CCN(CC)C(=O)N[C@H]1C[C@@H]2c3cccc4[nH]cc(c34)C[C@H]2N(C)C1.O=C(O)/C=C\C(=O)O` [S(−)-terguride hydrogen maleate], for which the Z-score is −1.0498. Same read-out and setting: the figure for `CC(C)Cc1ccc([C@H](C)C(=O)O)cc1` [S-(+)-ibuprofen] is −1.4076; for `c1ccc2c(c1)CCCc1cc(NCCN3CCOCC3)nnc1-2` [SR-95639A] it is −0.7703; for `CC(C)(C)NCC(O)c1ccc(O)c(CO)c1` (stereo not shown) [Salbutamol] it is −0.9959. The compound `OCc1cc(C(O)CNCCCCCCOCCCCc2ccccc2)ccc1O` (stereo not shown) [Salmeterol] yielded a Z-score of 0.4502. Still for that read-out and setting: the figure for `C[C@@H]1NCCc2cc(O)c(O)cc21` [Salsolinol hydrobromide] is 0.8772; for `C[n+]1cc2c3c(ccc2c2ccc4cc5c(cc4c21)OCO5)OCO3` [Sanguinarine] it is 31.0936; for `CC(C)(C)NC(=O)[C@@H]1C[C@@H]2CCCC[C@@H]2CN1C[C@@H](O)[C@H](Cc1ccccc1)NC(=O)[C@H](CC(N)=O)NC(=O)c1ccc2ccccc2n1` [Saquinavir mesylate] it is 1.027. The same measure, in the same setting: to `Br.C[N+]1([O-])[C@@H]2CC(OC(=O)[C@H](CO)c3ccccc3)C[C@H]1[C@@H]1O[C@@H]12` (stereo partly shown) [Scopolamin-N-oxide hydrobromide] belongs 0.9998. For the compound `CN1[C@@H]2C[C@@H](OC(=O)[C@H](CO)c3ccccc3)C[C@H]1[C@@H]1O[C@@H]12` [Scopolamine hydrochloride], the Z-score is on record as 0.9672. Still for that read-out and setting: to `COc1cc2ccc(=O)oc2cc1O` [Scopoletin] belongs 0.6027; to `COc1cc2c(cc1O)[C@@H]1Cc3ccc(OC)c(O)c3CN1CC2` [Scoulerine], 19.9884; to `O=C1C=C2C=C[C@@H]3C[C@@]2(O1)[C@H]1CCCCN31` [Securinine], −0.5036.

For the compound `C#CCN(C)[C@H](C)Cc1ccccc1` [Selegiline hydrochloride], the Z-score was 2.279. Same read-out and setting: the figure for `C=C1C/C(=C/C)C(=O)O[C@@H]2CCN3CC=C(COC(=O)[C@]1(C)O)[C@H]23` [Seneciphylline] is −1.7519. The same measure, in the same setting: the figure for `NCCc1c[nH]c2ccc(O)cc12` [Serotonin hydrochloride] is −0.8664. In turn, `Clc1ccc(C(Cn2ccnc2)OCc2csc3c(Cl)cccc23)c(Cl)c1` (stereo not shown) [Sertaconazole nitrate] came in with a Z-score of −0.4658. Also, the “Rank in normalized ORO score from screen” value (glycolytic switch compounds) worked out at 464.
